By pIC50 is commonly meant −log10 of the IC50, conventionally taken in molar units.

Results on 28 compounds are retold here after patent US12600731B2, “Isoxazolo[5,4-H]quinazoline compounds as protein kinase inhibitors” (CHENGDU CYNOGEN BIO-PHARMACEUTICAL TECHNOLOGY CO., LTD., priority 2019, dated 2026).

pIC50: −log10 of the molar value. Where a name gives a salt, the structure may show the parent alone.

Holding throughout (assay type): biochemical
One experiment deals with CDK2/Cyclin A2 (Homo sapiens, UniProt P24941). Put plainly: Kinase activity assay, CDK2/Cyclin A2 (tested in a similar manner). The conditions noted are these: tested in a similar manner to CDK4/cyclin D3. How it is done: (§1) The inhibitory effect of compounds against the kinase CDK4/cyclin D3 was detected by Caliper Mobility Shift Assay method. The final concentration of the compounds to be tested was set at 10 concentrations starting from 1 μM by 3-fold serial dilution. 5 μL of compounds at 5-fold final concentration and 10 μL of CDK4/cyclin D3 kinase solution at a final concentration of 10 nM was added to a 384-well reaction plate, respectively. The plate was pre-incubated for 10 min at room temperature (with negative control wells containing 10 μL of kinase buffer and 5 μL of 5% DMSO; positive control wells containing 10 μL of kinase solution and 5 μL of 5% DMSO). The reaction was initiated by adding 10 μL of ATP at a final concentration of 250 μM and the corresponding substrate peptide mixture at room temperature for 150 minutes. 30 μL of stop detection solution containing EDTA was added to stop the kinase reaction. Caliper EZ Reader was used to read the conversion rate. Inhibition rate %=(average conversion rate of positive control %−conversion rate of sample %)/(average conversion rate of positive control %−average conversion rate of negative control %). wherein: negative control wells represent the conversion rate readings of wells without enzymatic activity; positive control wells represent conversion readings for wells with no compound inhibition. The log(inhibitor) vs. response—Variable slope of the analysis software GraphPad Prism 5 was used with log concentration value as the X-axis and the percent inhibition rate as the Y-axis to fit the dose-response curve, the IC50 value of each compound on the enzyme activity was thus obtained. Calculation formula: Y=Bottom+(Top−Bottom)/(1+10^((Log IC50−X)*HillSlope)).
(§2) The IC50 values for CDK6/Cyclin D3 and CDK2/Cyclin A2 of compounds of the present disclosure were tested in a similar manner.

In the next experiment the target is CDK6/Cyclin D3 (Homo sapiens, UniProt Q00534). Put plainly: Kinase activity assay, CDK6/Cyclin D3 (tested in a similar manner). The conditions noted are these: tested in a similar manner to CDK4/cyclin D3. How it is done:
as §1, §2

For a further experiment, the target named is CDK4/cyclin D3 (Homo sapiens, UniProt P11802). Put plainly: Kinase activity assay, Caliper Mobility Shift Assay, CDK4/cyclin D3. The conditions noted are these: 10 nM kinase, ATP 250 μM, 150 minutes at room temperature. How it is done: as §1
Chain of CDK4/cyclin D3 (P11802 whole entry, species assumed): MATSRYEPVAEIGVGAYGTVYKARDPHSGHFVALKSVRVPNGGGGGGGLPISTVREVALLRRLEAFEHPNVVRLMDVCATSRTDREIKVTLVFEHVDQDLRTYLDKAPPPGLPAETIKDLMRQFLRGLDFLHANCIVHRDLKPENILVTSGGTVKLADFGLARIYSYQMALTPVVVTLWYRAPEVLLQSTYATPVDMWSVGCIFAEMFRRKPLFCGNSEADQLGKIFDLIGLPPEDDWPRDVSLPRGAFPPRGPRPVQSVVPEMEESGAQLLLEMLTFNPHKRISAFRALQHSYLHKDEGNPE
Chain of CDK4/cyclin D3 (P30281 whole entry partner, species assumed): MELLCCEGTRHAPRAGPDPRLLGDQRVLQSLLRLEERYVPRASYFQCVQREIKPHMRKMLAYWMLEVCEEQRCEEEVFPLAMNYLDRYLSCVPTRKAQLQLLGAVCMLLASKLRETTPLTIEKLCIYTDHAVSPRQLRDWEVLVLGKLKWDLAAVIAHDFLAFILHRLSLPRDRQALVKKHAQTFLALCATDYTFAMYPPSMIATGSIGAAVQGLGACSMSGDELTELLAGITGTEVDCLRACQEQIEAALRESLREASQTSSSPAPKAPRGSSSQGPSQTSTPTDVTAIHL

Chain of CDK6/Cyclin D3 (Q00534 whole entry, species assumed): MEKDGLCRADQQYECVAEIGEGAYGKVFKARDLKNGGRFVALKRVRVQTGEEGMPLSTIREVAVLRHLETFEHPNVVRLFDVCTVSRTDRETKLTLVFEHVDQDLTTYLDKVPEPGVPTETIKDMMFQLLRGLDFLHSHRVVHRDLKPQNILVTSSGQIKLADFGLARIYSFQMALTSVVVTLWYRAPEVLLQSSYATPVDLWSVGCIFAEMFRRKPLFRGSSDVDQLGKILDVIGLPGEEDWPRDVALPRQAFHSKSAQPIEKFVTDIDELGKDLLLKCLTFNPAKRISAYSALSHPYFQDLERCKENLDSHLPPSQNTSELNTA
Chain of CDK6/Cyclin D3 (P30281 whole entry partner, species assumed): as the sequence (P30281 whole entry partner, species assumed) above

As to `CC(C)c1noc2ccc3cnc(Nc4ccc(N5CCN(C)CC5)c(F)c4)nc3c12` [Compound I-34], the pIC50 was 7.92 against CDK2/Cyclin A2, 8.05 at CDK6/Cyclin D3 and 8.52 on CDK4/cyclin D3.

In the case of `c1cc(Nc2ncc3ccc4onc(C5CCCC5)c4c3n2)ncc1N1CCNCC1` [Compound I-22, 9-cyclopentyl-N-(5-(piperazin-1-yl)pyridin-2-yl)isoxazolo[5,4-H] quinazolin-2-amine], the pIC50 is 7.68 at CDK6/Cyclin D3 and 8.15 on CDK4/cyclin D3.

For `CC(C)c1noc2ccc3cnc(Nc4ccc(N5CCNCC5)c(F)c4)nc3c12` [Compound I-33, N-(3-fluoro-4-(piperazin-1-yl)phenyl)-9-isopropylisoxazolo[5,4-H] quinazolin-2-amine], the pIC50 against CDK2/Cyclin A2 was 8.00; on CDK6/Cyclin D3, 8.15; at CDK4/cyclin D3, 8.52.

In the case of `CC(C)c1noc2ccc3cnc(Nc4ccc(N5CCNCC5)nn4)nc3c12` [Compound I-15, 9-isopropyl-N-(6-(piperazin-1-yl)pyridazin-3-yl)isoxazolo[5,4-H]quinazolin-2-amine], the results for the pIC50 on CDK6/Cyclin D3 and at CDK4/cyclin D3 were 7.72 and 8.15, respectively.

For `CC(C)c1noc2c1-c1nc(Nc3ccc(N4CCOCC4)cn3)ncc1CC2` [Compound I-26, 9-isopropyl-N-(5-morpholinopyridin-2-yl)-5,6-dihydroisoxazolo[5,4-H] quinazolin-2-amine], the pIC50 at CDK6/Cyclin D3 is 6.56; on CDK4/cyclin D3 it was 7.20.

With `CC(C)c1noc2ccc3cnc(Nc4ccc(N5CCNCC5)cn4)nc3c12` [Compound I-1, 9-isopropyl-N-(5-(piperazin-1-yl)pyridin-2-yl)isoxazolo[5,4-H]quinazolin-2-amine hydrochloride], the pIC50 against CDK6/Cyclin D3 is 8.15; on CDK4/cyclin D3, 8.70.

Regarding `CC(C)c1noc2c1-c1nc(Nc3ccc(N4CCNCC4)cn3)ncc1CC2` [Compound I-24, 9-isopropyl-N-(5-(piperazin-1-yl)pyridin-2-yl)-5,6-dihydroisoxazolo[5,4-h]quinazolin-2-amine hydrochloride], the pIC50 against CDK6/Cyclin D3 was 7.09; at CDK4/cyclin D3, 7.89.

On to `CCN1CCN(c2ccc(Nc3ncc4ccc5onc(C(C)C)c5c4n3)nc2C)CC1` [Compound I-7, N-(5-(4-ethylpiperazin-1-yl)-6-methylpyridin-2-yl)-9-isopropylisoxazolo [5,4-H]quinazolin-2-amine], for which the negative logarithm of the IC50 (pIC50) against CDK6/Cyclin D3 was 6.75; on CDK4/cyclin D3 it was 7.44.

As for `CC(C)c1noc2ccc3cnc(Nc4ccc(N5CCN(C(C)C)CC5)cn4)nc3c12` [Compound I-9, 9-isopropyl-N-(5-(4-isopropylpiperazin-1-yl)pyridin-2-yl)isoxazolo [5,4-H]quinazolin-2-amine], the pIC50 on CDK6/Cyclin D3 is 7.85; on CDK4/cyclin D3 it was 8.40.

As to `CC(C)Cc1noc2ccc3cnc(Nc4ccc(N5CCNCC5)cn4)nc3c12` [Compound I-18, 9-isobutyl-N-(5-(piperazin-1-yl)pyridin-2-yl)isoxazolo[5,4-H]quinazolin-2-amine], the pIC50 on CDK6/Cyclin D3 was 7.49; on CDK4/cyclin D3 it was 8.22.

As for `CN1CCN(c2ccc(Nc3ncc4ccc5onc(C6CCCC6)c5c4n3)nc2)CC1` [Compound I-23, 9-cyclopentyl-N-(5-(4-methylpiperazin-1-yl)pyridin-2-yl)isoxazolo[5,4-H]quinazolin-2-amine], the pIC50 on CDK6/Cyclin D3 is 7.82; at CDK4/cyclin D3, 8.30.

Regarding `Cc1cc(Nc2ncc3ccc4onc(C(C)C)c4c3n2)ncc1N1CCNCC1` [Compound I-2, 9-isopropyl-N-(4-methyl-5-(piperazin-1-yl)pyridin-2-yl)isoxazolo[5,4-H] quinazolin-2-amine], the pIC50 against CDK6/Cyclin D3 is 7.64; on CDK4/cyclin D3, 8.22.

`CC(C)c1noc2ccc3cnc(Nc4ccc(N5CCS(=O)(=O)CC5)cn4)nc3c12` [Compound I-17, 4-(6-((9-isopropylisoxazolo[5,4-H]quinazolin-2-yl)amino)pyridin-3-yl)thiomorpholine 1,1-dioxide]: the pIC50 at CDK6/Cyclin D3 was 7.68; on CDK4/cyclin D3 it was 8.30.

On to `Cc1nc(Nc2ncc3ccc4onc(C(C)C)c4c3n2)ccc1N1CCNCC1` [Compound I-3, 9-isopropyl-N-(6-methyl-5-(piperazin-1-yl)pyridin-2-yl)isoxazolo[5,4-H] quinazolin-2-amine], for which the pIC50 is 7.44 on CDK6/Cyclin D3 and 8.10 at CDK4/cyclin D3.

Consider `CCN1CCN(Cc2ccc(Nc3ncc4ccc5onc(C(C)C)c5c4n3)nc2)CC1` [Compound I-12, N-(5-((4-ethylpiperazin-1-yl)methyl)pyridin-2-yl)-9-isopropylisoxazolo[5,4-H] quinazolin-2-amine], for which the pIC50 on CDK6/Cyclin D3 is 7.40; at CDK4/cyclin D3 it was 8.05.

For `CC(C)c1noc2ccc3cnc(Nc4ccc(N5CCNCC5=O)cn4)nc3c12` [Compound I-16, 1-(6-((9-isopropylisoxazolo[5,4-H]quinazolin-2-yl)amino)pyridin-3-yl)piperazin-2-one], the figures for the pIC50 at CDK6/Cyclin D3 and at CDK4/cyclin D3 were 7.60 and 8.15, respectively.

`CC(C)CN1CCN(c2ccc(Nc3ncc4ccc5onc(C(C)C)c5c4n3)nc2)CC1` [Compound I-11, N-(5-(4-isobutylpiperazin-1-yl)pyridin-2-yl)-9-isopropylisoxazolo[5,4-H] quinazolin-2-amine]: the pIC50 against CDK6/Cyclin D3 is 7.62; at CDK4/cyclin D3, 8.10.

Consider `CCN1CCN(c2ccc(Nc3ncc4ccc5onc(CC(C)C)c5c4n3)nc2)CC1` [Compound I-20, N-(5-(4-ethylpiperazin-1-yl)pyridin-2-yl)-9-isobutylisoxazolo[5,4-H] quinazolin-2-amine], for which the pIC50 against CDK6/Cyclin D3 was 7.41; on CDK4/cyclin D3, 8.15.

As to `CCN1CCN(c2ccc(Nc3ncc4c(n3)-c3c(C(C)C)noc3CC4)nc2)CC1` [Compound I-25, N-(5-(4-ethylpiperazin-1-yl)pyridin-2-yl)-9-isopropyl-5,6-dihydroisoxazolo [5,4-H]quinazolin-2-amine], the figures for the pIC50 on CDK6/Cyclin D3 and at CDK4/cyclin D3 were 7.19 and 7.96, respectively.

For `CC(C)Cc1noc2ccc3cnc(Nc4ccc(N5CCOCC5)cn4)nc3c12` [Compound I-21, 9-isobutyl-N-(5-morpholinopyridin-2-yl)isoxazolo[5,4-H]quinazolin-2-amine], the pIC50 against CDK6/Cyclin D3 is 6.61; on CDK4/cyclin D3 it was 7.33.

As for `CC(C)c1noc2ccc3cnc(Nc4ccc(C5CCNCC5)cn4)nc3c12` [Compound I-14, 9-isopropyl-N-(5-(piperidin-4-yl)pyridin-2-yl)isoxazolo[5,4-H] quinazolin-2-amine], the pIC50 against CDK6/Cyclin D3 was 8.00; at CDK4/cyclin D3 it was 8.40.

`CC(C)c1noc2ccc3cnc(Nc4ccc(N5CCOCC5)cn4)nc3c12` [Compound I-8, 9-isopropyl-N-(5-morpholinopyridin-2-yl)isoxazolo[5,4-H] quinazolin-2-amine]: the values for the pIC50 against CDK6/Cyclin D3 and on CDK4/cyclin D3 were 7.82 and 8.30, respectively.

With `CC(C)Cc1noc2ccc3cnc(Nc4ccc(N5CCN(C)CC5)cn4)nc3c12` [Compound I-19, 9-isobutyl-N-(5-(4-methylpiperazin-1-yl)pyridin-2-yl)isoxazolo[5,4-H] quinazolin-2-amine], the negative-log IC50 (pIC50) at CDK6/Cyclin D3 is 7.43; on CDK4/cyclin D3, 8.15.

Take `CC(C)c1noc2ccc3cnc(Nc4ccc(N5CCN(C)CC5)cn4)nc3c12` [Compound I-4, 9-isopropyl-N-(5-(4-methylpiperazin-1-yl)pyridin-2-yl)isoxazolo [5,4-H]quinazolin-2-amine]: the pIC50 is 8.40 against CDK6/Cyclin D3 and 9.00 at CDK4/cyclin D3.

`CC(C)c1noc2ccc3cnc(Nc4ccc(N5CCN(C6CC6)CC5)cn4)nc3c12` [Compound I-10, N-(5-(4-eyelopropylpiperazin-1-yl)pyridin-2-yl)-9-isopropylisoxazolo[5,4-H] quinazolin-2-amine]: the pIC50 against CDK6/Cyclin D3 is 7.17; at CDK4/cyclin D3, 7.68.

Turning to `CCN1CCN(c2cnc(Nc3ncc4ccc5onc(C(C)C)c5c4n3)cc2C)CC1` [Compound I-6, N-(5-(4-ethylpiperazin-1-yl)-4-methylpyridin-2-yl)-9-isopropylisoxazolo[5,4-H] quinazolin-2-amine], the figures for the pIC50 at CDK6/Cyclin D3 and at CDK4/cyclin D3 were 6.42 and 7.09, respectively.

Turning to `CC(C)c1noc2ccc3cnc(Nc4ccc(N5CCC(N(C)C)CC5)cn4)nc3c12` [Compound I-13, N-(5-(4-(dimethylamino)piperidin-1-yl)pyridin-2-yl)-9-isopropylisoxazolo [5,4-H]quinazolin-2-amine], the pIC50 on CDK6/Cyclin D3 is 7.92; on CDK4/cyclin D3, 8.40.

Turning to `CCN1CCN(c2ccc(Nc3ncc4ccc5onc(C(C)C)c5c4n3)nc2)CC1` [Compound I-5, N-(5-(4-ethylpiperazin-1-yl)pyridin-2-yl)-9-isopropylisoxazolo [5,4-H]quinazolin-2-amine], the pIC50 was 8.40 against CDK6/Cyclin D3 and 9.00 on CDK4/cyclin D3.
